Laboratory results: patent US20140072584A1, “NOVEL PHARMACEUTICAL USE OF BENZOIC ACID DERIVATIVES” (priority 2010, published 2014)

Legend:
[1] = tested on: LEW-1W donor transplanted rat hearts; test: Heart transplantation model, LEW-1W rats as donor, LEW-1A as recipient, oral administration; type: in vivo; conditions: oral 500 mg/kg/day, four weeks; n=24
Method: a) Heart Transplantation Animal Model with LEW-1W Rats as Donor, LEW-1a as Recipient:
LEW-1W rats were used as donors; donors hearts after being isolated were preserved in saline at 0-4° C. […] The donor's aorta and the recipient's abdominal aorta were sutured up with 8-0 Prolene vascular threads, and the donor's pulmonary artery and the recipient's vena cava were sutured up with 8-0 Prolene vascular threads. When blood vessels were opened, the rat's heart would immediately resume beating, (please see Guillonneau C, Hill M, Hubert F X, Chiffoleau E, Hervé C, Xian-Liang Li, et al. CD40Ig treatment results in allograft acceptence mediated by CD8+CD45RClow T cells, IFN-γ and indoleamine 2,3 dioxygenase. Journal Clinical Investagtion. 2007; 117 (4): 1096-1106).
Observation parameters: after the abdomen was closed, palpation was used to check the beating of a transplanted rat heart, to determine graft survival period. That transplanted heart stops beating within 3 weeks was considered as having acute rejection, that transplanted heart stops beating after one month was considered as having chronic rejection, and that transplanted heart beats normally for more than three months was considered as having immune tolerance. […]

[2] = tested on: BN donor transplanted rat hearts; test: Heart transplantation model, BN rats as donor, LEW-1A rats as recipient, oral administration; type: in vivo; conditions: oral 500 mg/kg/day, four weeks; n=6
Method: b) Heart Transplantation Animal Model with BN Rats as Donor and LEW-1A Rats as Recipient:
BN rats were used as donors; donors hearts after being isolated were preserved in saline at 0-4° C. […] The donor's aorta and the recipient's abdominal aorta were sutured up with 8-0 Prolene vascular threads, and the donor's pulmonary artery and the recipient's vena cava were sutured up with 8-OProlene vascular threads. When blood vessels were opened, the rat's heart would immediately resume beating.
Observation parameters: after the abdomen was closed, palpation was used to check the beating of a transplanted rat heart, to determine graft survival period. That transplanted heart stops beating within 3 weeks was considered as having acute rejection, that transplanted heart stops beating after one month was considered as having chronic rejection, and that transplanted heart beats normally for more than three months was considered as having immune tolerance.
Experiment Methods: 12 rats from the experiment model established by method b) BN rats as donors and LEW-1A rats as recipients were used and divided into study and control groups, 6 rats for each group. […]

CD4+ effector cells = test: Mixed lymphocyte culture, CFSE proliferation of effector cells by flow cytometry; type: cell-based, rat; conditions: 4 days culture
Excerpt: Experiment method: From bodies of untreated rats (LEW-1A rats in Example 1), splenocytes were extracted according to the splenocytes extraction method described in Section 2.2.1. Splenocytes were fluorescence-labeled for TCR, CD4 and CD25, and by flow cytometry cell sorter TCR+CD4+CD25−cells were collected as CD4+ effector cells. Splenocytes after the removal of T-lymphocytes (TCR+cells), B cell lymphocytes (CD45R+cells) and NK cells (3.2.3+cells) by immuno-magnetic beads, were marked using fluorescent antibodies for TCR, CD11c and CD123 (antibody concentration was 5-10 μg/ml). By flow cytometry cell sorter, TCR-CD11c−CD123+cells were collected as pDC, and TCR-CD11c+CD123−cells were collected as mDC.
Well separated CD4+ effector cells and pDC or mDC and defined regulatory cells, respectively in a proportion of 4/4/1 were added into a 96-well culture plate, 200 ul culture medium was added and they were cultured in a 5% CO2 incubator at 37 degrees Celsius for 4 days. During the cultivation, cinnamoyl anthranilic acid (1.2-150 μmol) or control DMSO solvent was added. Cells were stain labeled after the four days, and the proliferation of effector cells was analyzed by a flow cytometer.
CD4+ effector cells before the mixed culture were marked by living organism dye CFSE (10*6 cells/ml in 5 μM CFSE). Labeled CD4+ effector cells were added to a mixed lymphocyte cultivation test, were marked again using fluorescent antibodies (TCR, CD4) after four days, and then were analyzed by a flow cytometer (TCR+CD4+gate) for effector cell proliferation.
Cinnamoyl anthranilic acid was added in different concentrations (150 μM, 75 μM, 37.5 μM, 18.7 μM, 9.35 μM, 4.7 μM, 2.35 μM, 1.2 μM). Cell stain labeling was conducted after 4 days of the culture, and the proliferation of effector cells was analyzed by a flow cytometer.

[3] = after oral administration, cited from earlier work

COc1ccc(/C=C/C(=O)Nc2ccccc2C(=O)O)cc1OC [cinnamoyl anthranilic acid]
recipients overcame acute rejection [1]: 92% | recipients with long-term survival with a state of induced immune tolerance [1]: 42% | recipients overcame acute rejection [2]: 100% | recipients with long-term survival with a state of induced immune tolerance [2]: 50% | effect on proliferation of CD4 effector T cells (CFSE) (CD4+ effector cells; 37.5 μM to 9.35 μM): dose-dependent inhibitory effect | effect on activated CD4 effector cells at high concentrations (CD4+ effector cells; 150 μM and 75 μM): directly kill activated CD4 effector cells | effect on proliferation of CD4 effector cells at low concentration (CD4+ effector cells; below 4.7 μM): did not show the inhibitory effect | blood concentration at 48 h ([3]; 48 h): difficult to be detected | plasma half-life [3]: 5 to 8.6 h | time to peak plasma concentration [3]: 2 to 3 h | tissue distribution [3]: bronchial and lung have the highest concentration
